Laboratory results reported in patent publication US5854240A, “Methylene blue for the treatment or prophylaxis of encephalopathy caused by ifosfamide” (Newcastle University Ventures Limited, priority 1993, dated 1998).
Values joined by “and” are separate entries in the source; they are usually repeats but may differ in a detail not shown here. Identical values can stand only once. “Also recorded” adds a separate entry of the source.

What was measured:
[1] = CNS toxicity/encephalopathy in patients on ifosfamide without methylene blue; assay type: in vivo, human
Procedure: (§1) A patient diagnosed with advanced metastatic osteosarcoma began a five day chemotherapy regime. Treatment consisted of a total dosage of 12 g/m^2 ifosfamide with 80% (by weight, based on the weight of ifosfamide) mesna and adriamycin (65 mg/m^2) divided into two doses. They also received ZOFRAN™ brand ondansetron (antiemetic), 8 mg, by intravenous injection and 200 mg pyritinol three times per day orally. All parenteral medicaments were given in a total of 2 liters 5% glucose solution.
(§2) In 1990, a patient with metastatic leiomyosarcoma was treated for lung metastases with ifosfamide, adriamycin and dacarbazine. They had three cycles of therapy at the time.
(§3) In the second and third cycles, their dose of ifosfamide was 2 g/m^2 for three days.
(§4) At the request of the inventors, an independent clinical analysis was performed at the Northern Centre for Cancer Treatment, Newcastle Upon Tyne, United Kingdom, on a patient using a combintation of ifosfamide and methylene blue. A patient was diagnosed with adenocarcinoma of the oesophagus. They began chemotherapeutic treatment and was administered ifosfamide, Mitomycin C, and cisplatin. […] The patient eventually recovered. Upon administration of a third cycle of treatment, the patient was also given a prophylactic dosage of methylene blue.

metastatic osteosarcoma = experiment: Tumour response to chemotherapy, osteosarcoma patient; assay type: in vivo, human; conditions: Example 2; ifosfamide/adriamycin chemotherapy with methylene blue prophylaxis
Procedure: as §1
(§5) After three weeks from the end of the first cycle, the patient who was the subject of Example 1 again was given the same chemotherapeutic regime, except that this time they received 50 mg oral capsules of methylene blue prophylactically three times a day for the full course of treatment.

[2] = test system: metastatic leiomyosarcoma; experiment: Tumour response to chemotherapy, leiomyosarcoma patient; assay type: in vivo, human; conditions: Example 3; 1990, ifosfamide, adriamycin and dacarbazine, three cycles
Procedure: as §2, §3

[3] = test system: non small cell lung cancer; experiment: Tumour response to chemotherapy, non small cell lung cancer patients; assay type: in vivo, human; conditions: Example 4; ifosfamide, VP-16, methylene blue; four cycles
Procedure: (§6) A patient was diagnosed with non small cell lung cancer. They later developed brain, lung and mediastinal and bone metastases. The course of treatment included surgery, irradiation of the brain and chemotherapy. Dosage amounts for chemotherapy were as follows: ifosfamide (1 g/m^2) given intravenously for days 1-3; mesna 60% of intravenous ifosfamide dosage plus 800 mg orally twice daily for days 1-3; VP-16 (100 mg) given orally for days 1-8 and methylene blue (50 mg) was administered orally as a loading dose on day 1, with 3×50 mg administered orally on days 1-4.
(§7) A patient was diagnosed with non small cell lung cancer with extensive mediastinal lymphnode metastases. They were originally prescribed a course of cisplatinum, VP-16 and velbe. […] Oral ifosfamide, VP-16, and methylene blue was then ordered, using the same dosage requirements as described in Example 4 above.

[4] = Nitrobenzyl pyridine (NBP) test of urine for alkylating metabolites of ifosfamide; assay type: in vivo, human
[5] = GCMS analysis of urine of patient receiving ifosfamide and methylene blue; assay type: in vivo, human
Procedure: 100 ml of urine from a patient having had received methylene blue (300 mg/day) and ifosfamide (3 mg/kg daily) was analysed. The urine was refluxed for 30 minutes with 2M hydrochloric acid in ethanol (50 ml). After sufficient heating, 50 mls each of H2 O and […] hexane were added, the mixture shaken. The organic phase was then reduced to dryness in vacuo on a rotary evaporator. The dry residue was reconstituted in 1M hexane (10 ml) and 1 μl aliquots were submitted to gas chromatography-mass spectrometry analysis (GCMS). A 16 meter OV-17 capillary column was used with a temperature programme set for 40° C. for 1 minute, 5° C. per minute gradient to 250° C. and 250° C. for 10 minutes. Electron impact mass spectra were obtained on the resulting chromatographic peaks of interest (See A, B, and C of FIG. 1). These peaks were analysed through a Fisons Autospec Q MASS LIB GCMS computer library of mass spectra developed by the Department of Organic Chemistry, University of Berne, Switzerland of known organic compounds (FIGS. 2-4).

[6] = intravenous ifosfamide; Martindale, 28th Edition, 1982; cited from earlier work
small cell lung cancer = experiment: Tumour response to chemotherapy, small cell lung cancer patients; assay type: in vivo, human
Description: (§8) They received six cycles of ifosfamide treatment using the identical dosage requirements as in Example 4.
(§9) A patient was diagnosed with extensive small cell lung cancer with pleural effusion. Patient was prescribed ifosfamide/Vp-16/methylene blue treatment.

[7] = Urinary excretion of pyritinol and its metabolites in patients; assay type: in vivo, human
Description: It is believed that pyritinol elevates intracellular thiol concentrations thereby detoxifying the chloroethyl metabolites formed by ifosfamide. Pyritinol is metabolised by reduction of its centralised disulfide bond, presumably by glutathione reductase or a similar enzyme using GSH as its cofactor. Pyritinol is also known to be metabolised by S-methylation and S-oxidation into the following metabolites: [drawing 12] These metabolites are the excretable forms of pyritinol in urine. In patients not receiving ifosfamide treatment, virtually 100% of pyritinol will be excreted in its metabolised form into the urine. […] As was previously mentioned, without GSH as a cofactor, glutathione reductase is unable to reduce pyritinol into its metabolised form. It is therefore a further aspect of this invention to use the excretion of unmetabolised pyritinol as a biochemical marker for the onset of encephalopathy upon administration of ifosfamide.

[8] = Prophylaxis of ifosfamide encephalopathy with methylene blue in patients; assay type: in vivo, human
Procedure: as §5
With the following treatment, they received four 50 mg doses of oral methylene blue. Their cytotoxic chemotherapy comprised three 3.2 g doses of ifosfamide (6 g/m^2 total dose) split over 3 days. The ifosfamide was administered as a continuous infusion with mesna. They also received 50 mg/m^2 adriamycin in two separate doses on days 2 and 3. Additionally,they received pyritinol (200 mg) twice per day on each day of the four day treatment.
as §6, §8, §7
A patient with non small cell lung cancer with involvment of the thoracic wall and retroperitoneal disease began one cycle of ifosfamide/methylene blue chemotherapy.
as §9, §4

plasma amine oxidase = experiment: Inhibition of plasma amine oxidase (2-chlorethylamine oxidation to chloracetaldehyde, GC); assay type: biochemical; conditions: methylene blue 50 μM; 2-chlorethylamine 100 μg/ml; human or bovine plasma, 36° C., 1 hour
Procedure: Human or bovine plasma (2.0 ml) containing 2-chlorethylamine (100 μg/ml) was incubated in a shaking water bath at 36° C. for 1 hour. Aliquots (5 μl) were directly injected in to a Tenax packed gas chromatographic column maintained at 120° C. in a Perkin Elmer 3920B gas chromatograph. The product of 2-chlorethylamine oxidation by plasma amine oxidase, 2-chloracetaldehyde, was eluted at 9 minutes retention time. External calibration curves were used to determine concentrations of resulting chloracetaldehyde. […] The methylene blue is thus able to reduce the formation of chloracetaldehyde from 2-chlorethylamine by the plasma to 20% of that observed in the absence of methylene blue.

[9] = Therapeutic rescue of ifosfamide encephalopathy with methylene blue in a patient; assay type: in vivo, human; conditions: Example 1
Procedure: as §1
50 mg methylene blue, formulated at 2% w/v in water for injections, was administered by slow intravenous injection.
About 4 hours later, the 50 mg methylene blue dose was repeated to consolidate the earlier treatment.

[10] = Example 5, ifosfamide as in Example 4, six cycles
[11] = Example 3, ifosfamide + methylene blue, first cycle

O=P1(NCCCl)OCCCN1CCCl (stereo not drawn) [ifosfamide, N,3-bis(2-chloroethyl)tetrahydro-2H-1,3,2-oxazaphosphorin-2-amine 2-oxide]
signs of encephalopathy on ifosfamide ([1]; Example 1, 12 g/m^2 total ifosfamide, mesna, adriamycin, day three and next morning, before methylene blue): displayed signs of encephalopathy-type hallucinations; also recorded: still drowsy, disorientated and confused | encephalopathy on ifosfamide ([1]; Example 3, 1990, first cycle, ifosfamide, adriamycin and dacarbazine): mild encephalopatic signs (such as confusion and amnesia) short of psychosis | encephalopathy on ifosfamide ([1]; Example 3, 1990, second cycle, ifosfamide 2 g/m^2 for three days): psychotic and somnolent | encephalopathy on ifosfamide ([1]; Example 3, 1990, third cycle, ifosfamide 2 g/m^2 for three days): severely psychotic and had hallucinations which continued not only after the end of the cycle but also after discharge from hospital | encephalopathy on ifosfamide ([1]; Example 9, ifosfamide, Mitomycin C and cisplatin, following second cycle): developed ifosfamide encephalopathy, becoming drowsy and confused | lung metastases (lung scan) (metastatic osteosarcoma): lung metastases were almost gone | remission [2]: complete remission of the lung metastases | outcome [3]: died 6 months later due to tumour progression | NBP test of urine for alkylating metabolites of ifosfamide ([4]; Example 1, first cycle): positive | NBP test of urine for alkylating metabolites ([4]; Example 2, second cycle, with methylene blue): present | urinary metabolites identified by GCMS ([5]; Example 10, methylene blue 300 mg/day and ifosfamide 3 mg/kg daily, urine refluxed with HCl in ethanol): 2,2,2-trichlorethanal and 3-chloroproprionic acid ethyl ester and trichloracetic acid ethyl ester | novel urinary metabolites among patients treated with ifosfamide and methylene blue ([5]; patients treated with both ifosfamide and methylene blue): 2,2,2-trichlorethanol and trichloracetic acid and 3-chlorproprionic acid | patients experiencing CNS side effects, especially confusion and lethargy [6]: about 10% | Lambert/Eaton Syndrome (small cell lung cancer; [10]): rapidly improved | remission (small cell lung cancer; [10]): good partial remission | remission (small cell lung cancer; Example 8, ifosfamide/Vp-16/methylene blue, after six cycles): partial remission of the lung, lymphnode and liver metastases | remission (small cell lung cancer; Example 8, ifosfamide/Vp-16/methylene blue, after three cycles): partial remission in the primary and lymphnode metastases

Cc1ncc(CSSCc2cnc(C)c(O)c2CO)c(CO)c1O [pyritinol]
form of pyritinol excreted in urine upon addition of methylene blue ([7]; ifosfamide plus methylene blue, leucomethylene blue or similar compound): metabolised forms of pyritinol will subsequently be excreted in the urine | form of pyritinol excreted in urine upon ifosfamide ([7]; upon administration of ifosfamide): solely in its unmetabolised non-reduced form

CN(C)c1ccc2nc3ccc(N(C)C)cc3[s+]c2c1.[Cl-] [methylene blue, 3,7-bis(dimethylamino)phenothiazin-5-ium chloride]
disturbed nights during treatment ([8]; Example 2, 50 mg oral capsules three times a day prophylactically): no disturbed nights | symptoms of encephalopathy during prophylactic treatment ([8]; Example 3, four 50 mg oral doses, ifosfamide 6 g/m^2 total over 3 days, mesna, adriamycin, pyritinol, first cycle): no symptoms of encephalopathy were recorded during treatment | episodes of vomiting [8, 11]: one | malaise [8, 11]: no malaise | signs of encephalopathy during prophylactic treatment ([8]; Example 4, 50 mg oral loading dose day 1, 3×50 mg oral days 1-4, four cycles): No signs of encephalopathy after four cycles | signs of encephalopathy during prophylactic treatment ([8]; Example 5, dosage as in Example 4, six cycles): no signs of encephalopathy | signs of encephalopathy during prophylactic treatment ([8]; Example 6, oral ifosfamide, VP-16 and methylene blue, dosage as in Example 4, six cycles): Absolutely no signs of encephalopathy | CNS toxicity during prophylactic treatment ([8]; Example 7, dosage as in Example 4, one cycle): No CNS toxicity was exhibited | symptoms associated with encephalopathy during prophylactic treatment ([8]; Example 8, dosage as in Examples 4-7, six cycles): never developed the symptoms associated with encephalopathy | signs of encephalopathy during prophylactic treatment ([8]; Example 9, prophylactic methylene blue in third cycle, ifosfamide, Mitomycin C, cisplatin): no further signs of encephalopathy | patient's condition during prophylactic treatment ([8]; Example 9, third cycle): remained conscious and alert throughout treatment | formation of chloracetaldehyde from 2-chlorethylamine by the plasma, relative to that in absence of methylene blue (plasma amine oxidase): 20% | inhibition of plasma amine oxidase by methylene blue (plasma amine oxidase): 80% | symptoms of encephalopathy next day ([9]; 50 mg dose repeated about 4 hours later, next day): no signs of confusion or other symptoms of encephalopathy | malaise and nausea after methylene blue ([9]; 50 mg slow intravenous injection, after 1 hour): The malaise and nausea which they had previously experienced were gone | patient's condition after methylene blue ([9]; 50 mg slow intravenous injection, after 1 hour, continued ifosfamide infusion): much calmer, coherent and able to articulate the fearful nature of their hallucinations | sleep/condition after repeated dose ([9]; second 50 mg dose, that night and next day): slept well and was much better the next day
